Experimental data reported in PubChem BioAssay (NCI).
Several values for one entry are separate records, joined by “and”; a condition that tells them apart may be missing. Equal entries are not always repeated.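 Cells were grown in 96-well plates and exposed to each compound for 48 hours at five concentrations; endpoints were interpolated linearly between bracketing concentrations, or set to the highest concentration if not reached. Here, GI50 denotes the concentration required for 50% inhibition of growth. TGI denotes the concentration required for complete inhibition of growth.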

Legend:
Experiment in all cases: inhibition of tumour cell growth, NCI panel, 48 h
U251 CNS = system: U251 CNS
BT-549 breast = system: BT-549 breast
HCT-15 colon = system: HCT-15 colon
IGROV1 ovarian = system: IGROV1 ovarian
MCF7 breast = system: MCF7 breast
SN12C renal = system: SN12C renal
SNB-19 CNS = system: SNB-19 CNS
COLO 205 colon = system: COLO 205 colon
NCI-H522 lung = system: NCI-H522 lung
SK-MEL-5 melanoma = system: SK-MEL-5 melanoma

| SMILES | TGI (U251 CNS) | TGI (BT-549 breast) [µM] | TGI (HCT-15 colon) | TGI (IGROV1 ovarian) | TGI (MCF7 breast) | TGI (SN12C renal) | TGI (SNB-19 CNS) | TGI (COLO 205 colon) | TGI (NCI-H522 lung) | TGI (SK-MEL-5 melanoma) | GI50 (U251 CNS) | GI50 (BT-549 breast) [µM] | GI50 (HCT-15 colon) | GI50 (IGROV1 ovarian) | GI50 (MCF7 breast) [µM] | GI50 (SN12C renal) | GI50 (SNB-19 CNS) | GI50 (COLO 205 colon) | GI50 (NCI-H522 lung) | GI50 (SK-MEL-5 melanoma) |
| --- | --- | --- | --- | --- | --- | --- | --- | --- | --- | --- | --- | --- | --- | --- | --- | --- | --- | --- | --- | --- |
| CC(C)c1ccc(C(c2c(O)c3ccccc3oc2=O)c2c(O)c3ccccc3oc2=O)cc1 | 30.1 µM | 39.9 | 46.4 µM | > 62.6 µM | 86 µM | 48.6 µM | 49.9 µM | 34.2 µM | 45.6 µM | 31.3 µM |  |  |  |  |  |  |  |  |  |  |
| CN(C)C[C@@H]1CCn2cc(c3ccccc32)C2=C(C(=O)NC2=O)c2cn(c3ccccc23)CCO1 | > 10 µM | 9.57 | > 10 µM | 8.49 µM | > 10 µM | 5.85 µM | > 10 µM | > 10 µM | 7.31 µM | 7.11 µM | 1.9 µM | 1.41 | 1.61 µM | 1.3 µM | 1.74 | 0.679 µM | 4.49 µM | 1.03 µM | 0.763 µM | 1.39 µM |
| CN1CCN(C(=O)[C@@]2(C)CC[C@]3(C)CC[C@]4(C)C(=CC[C@@H]5[C@@]6(C)CC[C@H](OC(=O)c7cccnc7)C(C)(C)[C@@H]6CC[C@]54C)[C@@H]3C2)CC1 | 2.95 µM | 3.49 | 2.8 µM | 3.89 µM | 3.17 µM | 3.15 µM | 3.53 µM | 3.94 µM | 4.17 µM | 3.02 µM | 1.57 µM | 1.7 | 1.4 µM | 1.93 µM | 1.49 | 1.56 µM | 1.74 µM | 1.83 µM | 1.95 µM | 1.65 µM |
| COc1cc(C(=O)c2cnc(-c3ccc4cc[nH]c4c3)[nH]2)cc(OC)c1OC | 11 µM | 3.12 | 4.96 µM | 16.7 µM | 11.4 µM | 14.7 µM | 13.7 µM | 0.105 µM | 0.0913 µM | 0.389 µM | 0.0393 µM | 0.0631 | 0.0381 µM | 0.0997 µM | 0.0376 | 0.066 µM | 0.0409 µM | 0.0277 µM | < 0.0128 µM | 0.0385 µM |
| C=C1C(=O)O[C@H]2C3OC3(C)CC/C=C(/C(=O)OC)[C@@H](OC(C)=O)[C@H](OC(=O)C3(C)OC3C)[C@H]12 (some centres undefined) | 12.7 µM and 14.9 µg/mL | 2.27 | 2.78 µM and 32.2 µM and 2.13 µg/mL | 3.17 µM and 14.6 µM and 5.62 µg/mL | 7.16 µM and 1.28 µM | 4.68 µM and 10.4 µM and 6.03 µg/mL | > 7.5 µM and 53.5 µg/mL | 1.81 µM and 1.86 µM and 0.495 µg/mL | 0.242 µM and 0.241 µM | 3.87 µM and 7.72 µM and 9.58 µg/mL | 3.73 µM and 5.25 µg/mL |  | 899 nM and 3.85 µM and 0.482 µg/mL | 1.47 µM and 3.2 µM and 2.29 µg/mL | 0.334 | 1.5 µM and 2.97 µM and 2.45 µg/mL | 23.1 µg/mL | 506 nM and 487 nM and 0.263 µg/mL | 0.0891 µM and 0.122 µM | 1.88 µM and 1.91 µM and 2.6 µg/mL |
| CCN(CC)CCOc1ccc(NC(=O)C(C(C)C)N2C(=O)/C(=C/c3ccc(Br)cc3)SC2=S)cc1 (centres undefined) | 4.08 µM | 28.5 | 4.31 µM | 8.03 µM | 4.34 µM | 3.29 µM | 6.09 µM | 6.88 µM | 4.55 µM | 12.8 µM | 1.94 µM | 14.4 | 2.01 µM | 2.61 µM | 1.99 | 1.71 µM | 2.3 µM | 2.64 µM | 2.03 µM | 3.71 µM |
| Cc1cnc(-c2ccc(-c3ccc(NC(=O)Nc4cccc(C(F)(F)F)c4)cc3F)c3c2C(=O)NC3)[nH]1 | 32 µM | 49.1 | 33.6 µM | 32.2 µM | 25.3 µM | 35.3 µM | > 53.4 µM | 20.2 µM | 42.7 µM | > 65.6 µM | 11.3 µM | 10.8 | 6.19 µM | 1.97 µM | 2.04 | 0.304 µM | 17.4 µM | 0.0469 µM | 15.4 µM | 23.6 µM |
| Cc1cc2oc(=O)cc(OC/C=C3/CCC(=O)O3)c2cc1C | 15.1 µM | 6.73 | 12.2 µM | 14.6 µM | 12.6 µM | 22.5 µM | 19 µM | 10.4 µM | 2.97 µM | 26.3 µM | 3.42 µM | 1.93 | 2.69 µM | 3.33 µM | 2.25 | 5.2 µM | 3.04 µM | 2.19 µM | 1.4 µM | 12.4 µM |
| CCCCCCCCCCCCCC(=O)NO | 33.8 µM | 33.1 | 26.2 µM | 38.3 µM | > 100 µM | 38.9 µM | 73.2 µM | 20.1 µM | 19.5 µM | 26.5 µM |  |  |  |  |  |  |  |  |  |  |
| O=C(CS(=O)c1nc2ccccc2nc1-c1ccccc1)Nc1ccc(Cl)cc1 (centres undefined) | 61.6 µM | 53.1 | 59.4 µM | 99.5 µM | > 100 µM | 33.7 µM | > 100 µM | 58.6 µM | 60.1 µM | 30.8 µM | 21.8 µM | 1.33 | 21.2 µM | 31.2 µM | 38.7 | 18.2 µM | 38.4 µM | 23.4 µM | 18.6 µM | 15.2 µM |
| O=c1oc2ccc(I)cc2c(=O)n1-c1ccc(I)cc1F | > 45.3 µM | 2.02 | 10.5 µM | 20.8 µM | 11.3 µM | 6.49 µM | > 100 µM | 17.8 µM | 4.52 µM | 0.747 µM | 0.612 µM | 0.403 | 0.704 µM | 0.406 µM | 1.08 | 0.404 µM | 0.399 µM | 4.88 µM | 0.327 µM | 0.258 µM |
| N#Cc1ccc(C(=O)c2cnn(-c3ccc(F)cc3)c2N)cc1 | > 25 µM | > 25 | > 25 µM | > 25 µM | > 25 µM | > 25 µM | > 25 µM | > 25 µM | > 25 µM | > 25 µM | > 23.1 µM | > 25 | > 25 µM | > 25 µM | > 25 | > 25 µM | > 25 µM | > 25 µM | > 25 µM | > 25 µM |
